According to patent publication US12036246B2, “Compositions and methods for enhancing cancer chemotherapy” (priority 2017, dated 2024):

Columns and labels:
breast cancer cells = test: Metastatic tumor load in mammary glands, animals implanted with breast cancer cells; assay type: in vivo; settings: FIG. 65
p-AXL = test: Western blot of p-AXL in tumors, animal models of triple negative human breast cancer; assay type: in vivo; settings: FIG. 112
Cytochrome C = test: Western blot of Cytochrome C in tumors; assay type: in vivo; settings: FIG. 38
Text: Results of similar studies directed to Bc1-2, p-Bc1-2, and Caspase 3 are shown in FIG. 36; results for similar studies directed to Caspase 8 are shown in FIG. 37. […] These effects are enhanced, in several instances synergistically, when a nutritional supplement containing fish oil and selenium is used in combination with a chemotherapeutic drug.

[1] = tested on: proliferative index marker; test: Proliferative index marker in mammary gland tumors by immunocytochemistry; assay type: in vivo, murine; settings: FIG. 11
Text: The effects of a nutritional supplement that includes fish oil and selenium in combination with chemotherapeutic drugs were also identified in in vivo studies, where the Ki-61 proliferative index marker was identified in mammary gland tumors of murine models by immunocytochemistry.

A549 lung cancer cells = test: Cell cycle phase distribution of A549 tumor cells; assay type: cell-based; settings: selenium 300 ng/mL, fish oil 75 μM (DHA content), Alimta 1 μM, Tarceva 5 μM
[2] = tested on: A549 lung cancer sphere cells; test: Cell cycle phase distribution of A549 sphere cells; assay type: cell-based; settings: Alimta 1 μM, Tarceva 5 μM, fish oil 75 μM, selenium 300 ng/mL
[3] = tested on: MDA-MB-231 breast cancer sphere cells; test: Proliferation of MDA-MB-231 sphere cells; assay type: cell-based; settings: FIG. 45-46
[4] = tested on: MDA-MB-231 breast cancer sphere cells; test: Cell cycle phase distribution, Cisplatin / selenium / fish oil (Table 4); assay type: cell-based; settings: selenium 500 ng/mL, fish oil 75 μM (DHA content), Cisplatin 5 μg/mL
[5] = tested on: triple-negative breast cancer cell line (MDA-MB-231); test: Proliferation of MDA-MB-231 breast cancer cells; assay type: cell-based; settings: 72 hours, FIG. 8-9
HCC827Gr cells [6] = test: Colony formation by resistant HCC827Gr cells; assay type: cell-based, human; settings: 0.5 μM Iressa, FIG. 59-60
PD-1 = PD-1 in T cells of animal models; assay type: in vivo; settings: FIG. 70-72
HCC827Gr cells [7] = test: Viable resistant HCC827Gr cells in culture; assay type: cell-based, human; settings: FIG. 54
[8] = tested on: drug resistant HCC827Gr lung cancer cells; test: Proliferation of drug resistant HCC827Gr cells; assay type: cell-based, human
AXL = test: Western blot of AXL in drug resistant HCC827GR cells; assay type: cell-based, human; settings: Iressa 1 μM, FIG. 105, 108
A549 sphere cells = test: Proliferation of A549 sphere cells; assay type: cell-based; settings: FIG. 43-44
lung cancer cells [9] = test: Tumor weight in mice implanted with lung cancer cells, Iressa; assay type: in vivo
[10] = tested on: Iressa-resistant HCC827GR cells; test: Cell cycle phase distribution of Iressa-resistant cells, co-treatment; assay type: cell-based, human; settings: Iressa 1 μM
lung cancer cells [11] = test: Metastasis from implantation site of lung cancer cells; assay type: in vivo, mice; settings: FIG. 63
[12] = Loss of adipose tissue and muscle mass in tumor bearing mice; assay type: in vivo; settings: FIG. 75
Text: Individuals with cancer frequently present with weight loss, due to loss of fatty tissue and muscle wasting (cachexis). This weight loss can result in serious health issues in addition to those resulting directly from tumor growth and progression. […] Mice having tumors, with or without treatment with chemotherapeutic agents also experience cachexis.

IL-6 = IL-6 expression in tumors; settings: FIG. 77
implanted tumor = settings: 28 days after tumor implantation, FIG. 13
Text: 8A provides an example of a typical testing protocol for such a nutritional supplement (“Nutrawell”) and the chemotherapeutic drug Tarceva. As shown, 28 days after tumor implantation mice were sacrificed and the tumor characterized.

PTHrP = PTHrP expression in tumors; assay type: in vivo; settings: FIG. 77, FIG. 89
UCP-1 = UCP-1 expression in animal models of human cancer; assay type: in vivo; settings: FIG. 89
Text: (§1) As shown in FIG. 89 (lower left panel), expression of UCP-1 and ATGL is increases in tumor tissue (T) relative to non-tumor tissue (NT).

HSP90 = test: Western blot of HSP90 in tumors, animal models of triple negative human breast cancer; assay type: in vivo; settings: FIG. 111
Method: Studies of the effect of a nutritional supplement containing fish oil and selenium, both alone and in combination with chemotherapeutic agents, were also studied using in vivo animal models of triple negative human breast cancer. Animals were treated with a nutritional supplement containing fish oil and selenium (for example, a formulation as described in Table 1), Taxol (“tax”), Adriamycin (“adyri”), Avastin, or a combination of the nutritional supplement and individual chemotherapeutic agents.

[13] = tested on: vascularization of tumors; test: Tumor-associated blood vessels in murine models of breast cancer; assay type: in vivo, mice; settings: FIG. 24-31
Method: In an exemplary study mice were treated as shown in the scheme depicted in FIG. 23.

ATGL = ATGL expression in animal models of human cancer; assay type: in vivo; settings: FIG. 89
Text: as §1

Q: With `COc1cccc2c1C(=O)c1c(O)c3c(c(O)c1C2=O)C[C@@](O)(C(=O)CO)C[C@@H]3O[C@H]1C[C@H](N)[C@H](O)[C@H](C)O1` [Adriamycin, doxorubicin] as the compound, how does the “metastatic tumor load in the mammary glands” value (breast cancer cells) read?
A: more effective than Taxol in reducing metastatic tumor load

Q: And the “p-AXL content of the tumor” value (p-AXL)?
A: little to no apparent reduction in p-AXL expression

Q: And the “Cytochrome C” value (Cytochrome C)?
A: little to no increase

Q: What about the “number of Ki-61 positive cells (proliferative index)” value [1] of the same compound?
A: reduces the number of positive cells

Q: With `Nc1nc2[nH]cc(CCc3ccc(C(=O)N[C@@H](CCC(=O)O)C(=O)O)cc3)c2c(=O)[nH]1` [Alimta] as the compound, how does the “G0/G1 (cell cycle phase distribution)” value (A549 lung cancer cells) read?
A: 58.4%

Q: And the “G2/M (cell cycle phase distribution)” value (A549 lung cancer cells)?
A: 5.3%

Q: And the “S (cell cycle phase distribution)” value (A549 lung cancer cells)?
A: 36.3%

Q: And the “SubG1 (cell cycle phase distribution)” value (A549 lung cancer cells)?
A: 45%

Q: What about the “G0/G1 (cell cycle phase distribution)” value [2] of the same compound?
A: 62.4%

Q: What about the “G2/M (cell cycle phase distribution)” value [2] of the same compound?
A: 7.2%

Q: What about the “S (cell cycle phase distribution)” value [2] of the same compound?
A: 30.4%

Q: And the “SubG1 (cell cycle phase distribution)” value [2]?
A: 20.9%

Q: Which results are given for `N.N.[Cl][Pt][Cl]` [Cisplatin]?
A: proliferation of MDA-MB-231 breast cancer sphere cells [3]: relatively resistant; G0/G1 (cell cycle phase distribution) [4]: 48.5%; G2/M (cell cycle phase distribution) [4]: 6.1%; S (cell cycle phase distribution) [4]: 45.4%; SubG1 (cell cycle phase distribution) [4]: 11.7%

Q: What does the source list for `CC(=O)O[C@@]12CO[C@@H]1C[C@H](O)[C@@]1(C)C(=O)[C@H](O)C3=C(C)[C@@H](OC(=O)[C@H](O)[C@@H](NC(=O)OC(C)(C)C)c4ccccc4)C[C@@](O)([C@@H](OC(=O)c4ccccc4)[C@H]21)C3(C)C` [Docetaxel]?
A: proliferation of MDA-MB-231 breast cancer sphere cells [3]: moderate sensitivity to Docetaxel; MDA-MB-231 cell proliferation [5]: provided a reduction in proliferation

Q: Which “colony formation by HCC827Gr cells” value (HCC827Gr cells [6]) does the source give for `COc1cc2ncnc(Nc3ccc(F)c(Cl)c3)c2cc1OCCCN1CCOCC1` [Iressa] here?
A: Significant colony formation

Q: What about the “PD-1 expression in T cells” value (PD-1) of the same compound?
A: marginally reduced

Q: And the “number of viable resistant HCC827Gr cells” value (HCC827Gr cells [7])?
A: does not significantly decrease the number of viable resistant HCC827Gr cells

Q: What about the “reduction in cell proliferation” value ([8]; HCC827Gr cells, FIG. 57-58) of the same compound?
A: ≤ 20%

Q: And the activity at 1 µM ([8]; Homo sapiens, read-out: proliferation, % of control values)?
A: ~80%

Q: And the AXL expression (AXL)?
A: had no effect

Q: And the “proliferation of A549 sphere cells” value (A549 sphere cells)?
A: relatively resistant to treatment with Iressa

Q: And the tumor weight (lung cancer cells [9]; FIG. 16)?
A: only a marginal reduction in tumor weight

Q: What about the tumor weight distribution (lung cancer cells [9]; FIG. 16 top right panel) of the same compound?
A: most of the mice having >6 gram tumors

Q: And the “G0/G1 (cell cycle phase distribution)” value [10]?
A: 76.1%

Q: What about the “G2/M (cell cycle phase distribution)” value [10] of the same compound?
A: 18.9%

Q: What about the “S (cell cycle phase distribution)” value [10] of the same compound?
A: 4.9%

Q: And the “SubG1 (cell cycle phase distribution)” value [10]?
A: 1.51%

Q: With `C#Cc1cccc(Nc2ncnc3cc(OCCOC)c(OCCOC)cc23)c1` [Tarceva] as the compound, how does the “metastasis of tumor cells from the implantation site” value (lung cancer cells [11]) read?
A: reduced to some extent

Q: And the “G0/G1 (cell cycle phase distribution)” value (A549 lung cancer cells)?
A: 70.9%

Q: What about the “G2/M (cell cycle phase distribution)” value (A549 lung cancer cells) of the same compound?
A: 14.8%

Q: What about the “S (cell cycle phase distribution)” value (A549 lung cancer cells) of the same compound?
A: 14.2%

Q: What about the “SubG1 (cell cycle phase distribution)” value (A549 lung cancer cells) of the same compound?
A: 5.9%

Q: What about the “PD-1 expression in T cells” value (PD-1) of the same compound?
A: marginally reduced

Q: What about the “loss of white adipose tissue (WAT), brown adipose tissue (BAT), and muscle mass (gastroc)” value [12] of the same compound?
A: only slightly relieved

Q: What about the “G0/G1 (cell cycle phase distribution)” value [2] of the same compound?
A: 58.3%

Q: And the “G2/M (cell cycle phase distribution)” value [2]?
A: 8.9%

Q: What about the “S (cell cycle phase distribution)” value [2] of the same compound?
A: 32.7%

Q: What about the “SubG1 (cell cycle phase distribution)” value [2] of the same compound?
A: 42.8%

Q: And the “proliferation of A549 sphere cells” value (A549 sphere cells)?
A: similarly resistant to Tarceva

Q: What about the “IL-6 expression in tumors” value (IL-6) of the same compound?
A: can actually increase expression of such gene products

Q: And the “tumor weight distribution, large (>5 g) tumors” value (implanted tumor)?
A: still showed a significant number of such large tumors

Q: What about the PTHrP expression (PTHrP) of the same compound?
A: can actually increase expression of such gene products

Q: For `CC(=O)O[C@H]1C(=O)[C@@]2(C)[C@H]([C@H](OC(=O)c3ccccc3)[C@]3(O)C[C@H](OC(=O)[C@H](O)[C@@H](NC(=O)c4ccccc4)c4ccccc4)C(C)=C1C3(C)C)[C@]1(OC(C)=O)CO[C@@H]1C[C@@H]2O` [Taxol, paclitaxel], which “metastatic tumor load in the mammary glands” value (breast cancer cells) is on record?
A: modest reduction in tumor loading of mammary glands

Q: What about the “expression of UCP-1” value (UCP-1) of the same compound?
A: decreased somewhat

Q: What about the “HSP90 expression in tumor samples” value (HSP90) of the same compound?
A: minimal impact on HSP90 expression

Q: What about the “blood vessels associated with the tumors” value [13] of the same compound?
A: reduce the number of blood vessels associated with the tumor and also reduce their diameter

Q: What about the PTHrP expression (PTHrP) of the same compound?
A: actually increased expression when used alone

Q: What about the “p-AXL content of the tumor” value (p-AXL) of the same compound?
A: reduces p-AXL expression

Q: What about the “Cytochrome C” value (Cytochrome C) of the same compound?
A: little to no increase

Q: What about the “expression of ATGL” value (ATGL) of the same compound?
A: decreased somewhat

Q: What about the “number of Ki-61 positive cells (proliferative index)” value [1] of the same compound?
A: reduces the number of positive cells

Q: Which “HSP90 expression in tumor samples” value (HSP90) does the source give for “Avastin: chemotherapeutic drug commonly used to treat breast cancer” here?
A: reduced to some extent

Q: What about the “p-AXL content of the tumor” value (p-AXL) of the same compound?
A: little to no apparent reduction in p-AXL expression
